According to paper PMC11784183, “Identification of an antibiotic from an HTS targeting EF-Tu:tRNA interaction: a prospective topical treatment for MRSA skin infections” (Applied and Environmental Microbiology, 2024):

Details: mouse, in vivo, ip, 10 mg/kg

CC[C@@H]1Cc2cc(O)ccc2C2=C1c1ccc(O)cc1C[C@H]2CC [MGC-10]
passage of the blood brain barrier: did not pass the blood brain barrier
